Patent US12203103B2, “Selection marker for cell transfection and protein production” (Sanofi, priority 2014, dated 2025)

Key:
CHO 9E4 cells [1] = conditions: MSX 25 μM; 13C3; 960 wells tested; growing clones after 15 to 20 days
CHO 9E4 cell line = experiment: Selection of stably transfected CHO 9E4 cells with leflunomide or teriflunomide as selection agent; format: cell-based, Chinese hamster; conditions: for Antibody: Less than 10 μg/ml (number of wells) / Antibody: More than 10 μg/ml (number of wells) / % of Occupied / % of Producers / Occupied (number of wells): Teriflunomide 50 μM; for % of Occupied / % of Producers / Occupied (number of wells): 480 wells tested; for Occupied (number of wells): growing clones after 15 to 20 days
From the text: The CHO 9E4 cell line was transfected with two different plasmids bearing the cDNA encoding human DHODH cDNA and the genetic material for production of anti CD38 or 13C3 antibodies (vectors pBH4952 and pBH4967). As a control vector for selection, the plasmid bearing a cDNA encoding human GS cDNA instead of DHODH (pBH3695) was transfected using into CHO 9E4 cell lines. The genetic material was transfected using standard electroporation techniques.
Twenty four hours post transfection, the selection process was started. […] The control vector was equally transfected and submitted to the same selection process.
In each case, 480 wells were seeded with 2000 cells/well.

CHO 9E4 cells [2] = experiment: Preliminary culture of CHO 9E4 cells with leflunomide; format: cell-based, Chinese hamster; conditions: leflunomide at 50 and 100 μM; preliminary experiments
Procedure: This obtained 27 wells with growing cells. Of these 27, 4 produced low but significant amount 13C3 antibody. However production was unstable and the efficiency was low below 0.1%. These experiments served as proof of principle that DHODH can be used as a selectable marker for recombinant protein production, so further experiments were performed.

Q: `CS(=N)(=O)CC[C@H](N)C(=O)O` (stereo partly drawn) [MSX, L-methionine sulfoximine] was tested. Which “Occupied (number of wells)” value (CHO 9E4 cells [1]) did it give?
A: Its value is 46.

Q: With `C/C(O)=C(\C#N)C(=O)Nc1ccc(C(F)(F)F)cc1` [teriflunomide, (2Z)-2-cyano-3-hydroxy-N-[4-(trifluoromethyl)phenyl]but-2-enamide] as the compound, how does the “Antibody: Less than 10 μg/ml (number of wells)” value (CHO 9E4 cell line; 13C3) read?
A: Its value is 24.

Q: And the “Antibody: More than 10 μg/ml (number of wells)” value (CHO 9E4 cell line; 13C3)?
A: Its value is 14.

Q: What about the “% of Occupied” value (CHO 9E4 cell line; 13C3) of the same compound?
A: Its value is 8%.

Q: What about the “% of Producers” value (CHO 9E4 cell line; 13C3) of the same compound?
A: The value was 3%.

Q: What about the “Occupied (number of wells)” value (CHO 9E4 cell line; 13C3) of the same compound?
A: Its value is 38.

Q: What about the “Antibody: Less than 10 μg/ml (number of wells)” value (CHO 9E4 cell line; anti-CD38) of the same compound?
A: The value was 29.

Q: And the “Antibody: More than 10 μg/ml (number of wells)” value (CHO 9E4 cell line; anti-CD38)?
A: Its value is 19.

Q: And the “% of Occupied” value (CHO 9E4 cell line; anti-CD38)?
A: The value was 10%.

Q: What about the “% of Producers” value (CHO 9E4 cell line; anti-CD38) of the same compound?
A: Its value is 4%.

Q: What about the “Occupied (number of wells)” value (CHO 9E4 cell line; anti-CD38) of the same compound?
A: The value was 48.

Q: What about the “growth of cells transfected with control vector” value (CHO 9E4 cell line; control vector pBH3695 (human GS), 50 and 100 μM teriflunomide, even after 25 days, 480 wells) of the same compound?
A: The value was “no growth was observed in any of the wells”.

Q: What about the “wells with growing cells” value (CHO 9E4 cell line; teriflunomide-selected, human DHODH vectors pBH4967 and pBH4952, two weeks later) of the same compound?
A: The value was 8-10%.

Q: And the “growth of cells transfected with hamster DHODH vectors” value (CHO 9E4 cell line; teriflunomide-selected, vectors pBH4940 and pBH4939)?
A: Its value is “no growth was observed in any of the wells”.

Q: For `Cc1oncc1C(=O)Nc1ccc(C(F)(F)F)cc1` [leflunomide, 5-methyl-N-[4-(trifluoromethyl)phenyl]-isoxazole-4-carboxamide], which “effect on CHO 9E4 cell growth” value (CHO 9E4 cells [2]) is on record?
A: The value was “did not kill the cells but inhibited growth”.

Q: And the “antibody in supernatants of the 480 wells” value (CHO 9E4 cell line; leflunomide 50 and 100 μM)?
A: Its value is “none of the supernatants showed detectable amount of antibodies”.

Q: And the “wells displaying growing clones” value (CHO 9E4 cell line; leflunomide 50 and 100 μM, DHODH from human or hamster origin, after 20 days)?
A: Its value is “all the wells were displaying growing clones”.
